# Structures can show the parent of a compound that is named as a salt.
# Key:
# Mouse = tested on: Mouse; design: species or system Male mice; conditions: in vivo, po, 4320 min
# Protocol: 1. Determination of the minimum toxic dose.
# Male mice of 20-25 g weight are administered maximum doses of 300 mg/kg of the test substance p.o. The animals were carefully observed for 3 hours for symptoms of toxicity. Over a period of 72 hours after administration, all symptoms and cases of death are additionally recorded. Concomitant symptoms are likewise observed and recorded. If death or strong toxic symptoms are observed, further mice are administered increasingly lower doses until toxic symptoms no longer occur. The lowest dose which causes death or strong toxic symptoms is given in the following Table A as the minimum toxic dose. The example numbers given in Table A relate to the subsequent preparation examples.
# stomach motility = test: Determination of effect on stomach motility in anaesthetised rats; type: in vivo, rats of the SIV 50 strain; conditions: rat
# Protocol: 2. Determination of effect on stomach motility in anaesthetised rats.
# For the tests, groups of 5-6 fasting rats of the SIV 50 strain having a body weight of 220-290 g were used in each test which had been anaesthetised with a ketamine/xylazine mixture. The animals received an initial dose of 1 ml/kg of a solution of 50 mg/ml of ketamine and 10 mg/ml of xylazine administered i.p., and the anaesthetic level was maintained by a continuous intraperitoneal infusion of the same solution at an infusion rate of 1 ml/kg/h. The animals were tracheotomised and laparotomised. After applying a pylorus ligature, a stomach tube was inserted into the stomach and connected at the other end by means of a three-way tap to a calibrated pressure transducer (Statham Element P 23 ID). A corresponding tube was inserted rectally 8-9 cm into the colon and likewise connected in the same manner to a calibrated pressure transducer of the same type. The stomachs of the animals were then filled with 2 ml of water via the tube. After a stabilisation phase of 40 min, the pressure variations in the stomach and colon were measured over a test period of 2 hours and 20 minutes, and the amplitudes produced by the phasic gastric motility were recorded by means of a Watanabe multirecorder (MC 6621). The geometric mean values of the amplitudes during the first 20 min were determined for the individual animals and used as control amplitude values. After the first 20 min, the test substances were administered i.p. The maximum increase in amplitude (=mean value of the 20 minute period in which the highest increase in amplitude occurs) caused by the test substances was determined in % increase of the control amplitude values determined before administration of the test substances, and the mean value for the animal group is given in the following Table A. In addition, the maximum increase in the mean gastric tone caused by the test substances during the test period compared with the mean gastric tone existing before administration of the test substances was recorded. This increase in gastric tone is given in Table A in cm of H2 O (mean value of the animal group). In the colon, the test substances cause amplitude damping.
# 5-HT1-like receptors = test: Serotonin-agonistic contractions in segments of the isolated basilar artery of the pig (in vitro antimigraine activity); type: cell-based; conditions: for Maximum Contraction Produced by Test Substance Relative to Maximum Contraction Produced by Serotonin = 1 / relative potency calculated as pD2 of the test substance relative to the pD2 of serotonin determined on the same piece of artery / pD2 = neg. log of Concentration Which Produces 50% of Maximum Contraction: porcine basilar artery, in vitro; for pD2 = neg. log of Concentration Which Produces 50% of Maximum Contraction: concentrations in mol/l
# From the text: 3. Investigation of Properties Indicating Antimigraine Activity of Test Substance in vitro. Migraine pains are associated with excessive dilation of the cranial vascular system. […] This property of the test substances can be used as a basis for predicting anti-migraine activity. The serotoninagonistic activity of the substances on 5-HT1 -like receptors can be determined in vitro in isolated organ strips from the basilar artery of a pig. […] Such a contraction is also produced by the test substances and is a good index of the antimigraine activity of the substances. The tests are carried out according to the method described by van Charldorp et al. (Naunyn-Schmiedeb. Arch. Pharmacol. supp. to volume 341, R89, 1990 and Eur. J. Pharmacol. 183, 1106-1107, 1990). Experimental description of the in vitro determination of the effect inducing serotonin-agonistic contractions in segments of the isolated basilar artery of the pig. For the experiment, helical segments of the basilar artery of pigs were used which were isolated from pig brains supplied by a slaughterhouse. Each strip was fixed in an organ bath consisting of 10 ml of a modified Tyrode solution such that the tissue was under a tension of 10 mN. […] The solution was modified by adding 10^-8 mol/l of indomethacin, 10^-7 mol/l of atropine and 10^-7 mol/l of propanolol and adjusted to pH=7.4. The bath was aerated with a mixture of 95% O2 and 5% CO2. After an equilibration phase of 1 hour a contraction of the tissue was produced twice, in each case by addition of serotonin at a concentration of 10^-5 mol/l and the preparation was subsequently washed out. The contraction effect was then measured with increasing serotonin concentration and a cumulative concentration effect curve for serotonin was drawn up. A cumulative concentration effect curve was drawn up for the test substance on the same preparation (after washing out again). In the following Table B, the maximum contraction caused by the test substances in relationship to the maximum contraction produced by serotonin, and the negative logarithm of that concentration of the test substance which produces 50% of the maximum contraction which can be produced by this test substance (=pD2), and the relative potency calculated as pD2 of the test substance relative to the pD2 of serotonin determined on the same piece of artery are given.
# [1] = ip, 10 μmole/kg i.p., read-out: Maximum Amplitude Increase (increase in % of control amplitude)
Structure (SMILES),Minimum Toxic Dose (Mouse),change in vivo at 10 µmol/kg (stomach motility; [1]),Gastric Tone Increase (stomach motility; 10 μmole/kg i.p.),Maximum Contraction Produced by Test Substance Relative to Maximum Contraction Produced by Serotonin = 1 (5-HT1-like receptors),relative potency calculated as pD2 of the test substance relative to the pD2 of serotonin determined on the same piece of artery (5-HT1-like receptors),pD2 = neg. log of Concentration Which Produces 50% of Maximum Contraction (5-HT1-like receptors),"change in vivo at 100 µmol/kg (stomach motility; ip, 100 μmole/kg i.p., read-out: Maximum Amplitude Increase (increase in % of control amplitude))",Gastric Tone Increase (stomach motility; 100 μmole/kg i.p.),action on 5-HT1-like receptors in the basilar artery (contraction) (5-HT1-like receptors; isolated basilar artery)
"NCC1CNC(=O)c2cccc3[nH]cc1c23 (racemic) [Example 1, 3-Aminomethyl-3,4,5,6-tetrahydro-6-oxo-1H-azepino[5,4,3-cd]indole]",> 300 mg/kg,449%,7.4 cm H2O,0.8,0.132,6.5,–,–,–
"NC[C@@H]1CNC(=O)c2cccc3[nH]cc1c23 [Example 1a, 3R(+)-3-Aminomethyl-3,4,5,6-tetrahydro-6-oxo-1H-azepino[5,4,3-cd]indole]",–,–,–,1.0,0.172,6.7,–,–,–
"CNC[C@@H]1CNC(=O)c2cccc3[nH]cc1c23 [Example 4a, 3R(+)-3-methylaminomethyl-3,4,5,6-tetrahydro-6-oxo-1H-azepino[5,4,3-cd]indole hydrochloride]",–,–,–,0.6,0.354,7.0,–,–,–
"CNCC1CNC(=O)c2cccc3[nH]cc1c23 (racemic) [Example 4, 3-Methylaminomethyl-3,4,5,6-tetrahydro-6-oxo-1H-azepino[5,4,3-cd]indole]",> 300 mg/kg,–,–,0.6,0.208,6.8,532%,9.0 cm H2O,–
"NCCc1c[nH]c2ccc(O)cc12 [Serotonin, reference compound]",–,–,–,–,–,–,–,–,concentration -dependent contraction
"Cn1cc2c3c(cccc31)C(=O)NCC2CN (stereo not shown) [Example 9, 1-methyl-3-aminomethyl-3,4,5,6-tetrahydro-6-oxo-1H-azepino[5,4,3-cd]indole]",> 300 mg/kg,334%,5.5 cm H2O,0.5,0.124,6.4,–,–,–

# Source: US5272143A, “6-oxoazepinoindole compounds, and pharmaceutical compositions containing them” (Kali-Chemie Pharma GmbH, priority 1991, dated 1993)
